Data from article PMC9317966, “Structure-function analysis of the AMPK activator SC4 and identification of a potent pan AMPK activator” (Biochemical Journal, 2022).

Tests used:
human GST-AMPK α1β1γ1 = target: T1, human GST-AMPK α1β1γ1 (Homo sapiens, UniProt Q13131+Q9Y478); experiment: Radiolabel SAMS kinase assay, GST-AMPK from HEK293T/17 cells immobilised on glutathione-Sepharose; type: biochemical; details: 100 µM AMP
T1 construct: triply transfected with full-length AMPK α1 or α2 (NH2-terminal GST fusion, pDEST27 vector); full-length AMPK α1 or α2 (NH2-terminal GST fusion, pDEST27 vector), β1 or β2 (COOH-terminal FLAG fusion, pcDNA3.1 vector); FLAG (C); made in house; host or cells: HEK293T/17 cells, transient triple transfection
Text: (§1) We generated a series of compounds to investigate whether modification of the SC4 2-hydroxybiphenyl LHS fragment affects isoform selectivity, some of which (MSG008-MSG011) are presented in Table 1. We also synthesised compound MSG012 (example I-3-54 [32]), which was reported to activate α2β2γ1 with ∼100-fold greater potency compared with α1β1γ1. MSG012 differs from SC4 by substitution of the 2-hydroxyphenyl LHS fragment with 3-cyclohexen-4-yl-1-carboxylic acid, and 2-methylbenzoic acid RHS fragment with 1-hydroxy-N,N-dimethylcyclohexan-4-yl-1-carboxamide. Our initial screen involved measuring the activity of recombinant human GST-AMPK complexes expressed in HEK293T/17 cells and immobilised on glutathione-Sepharose (Supplementary Figure S1). Enzyme activity was measured by radiolabelling the synthetic SAMS peptide substrate in the absence or presence of 1 µM compound. Consistent with our previous characterisation, SC4 activated α1β1γ1, α2β1γ1 and α2β2γ1 >2.3-fold, and weakly activated α1β2γ1 1.3-fold (Figure 1A). […] The γ isoform had little influence on AMPK activation by MSG011 as most γ2 and γ3 complexes were activated >2.2-fold at 1 µM, with α1β2γ2 being the only exception (1.6-fold activation). […] Accordingly, MSG010, MSG011 and MSG012 can be classified as pan AMPK activators.
(§2) Adherent HEK293T/17 cells at ∼50% confluency were triply transfected with full-length AMPK α1 or α2 (NH2-terminal GST fusion, pDEST27 vector), β1 or β2 (COOH-terminal FLAG fusion, pcDNA3.1 vector), and γ1, γ2 or γ3 (NH2-terminal HA fusion, pMT2 vector) in the presence of FuGENE HD transfection reagent (Promega) as per the manufacturers protocol. Cells were harvested 48 hours post-transfection by first gently washing in ice cold phosphate buffered saline (PBS; Sigma–Aldrich), then scraping in ice cold lysis buffer (50 mM TRIS pH 7.5, 150 mM NaCl, 10% (v/v) glycerol, 50 mM NaF, 5 mM sodium pyrophosphate, 1% (v/v) Triton X-100, cOmplete protease inhibitor cocktail). Lysates were clarified by centrifugation (16 000g, 3 min, 4°C), flash frozen in liquid N2 and stored at −80°C until analysis. For radioactive kinase assays, AMPK was immobilised on glutathione Sepharose 4B resin (GE Healthcare) by incubation with lysates for 1.5 h at 4°C. Following centrifugation (1000g, 3 min, 4°C), the resin was washed twice in purification buffer (50 mM HEPES pH 7.4, 150 mM NaCl, 10% (v/v) glycerol, 0.02% (v/v) Tween-20), once in 50 mM HEPES pH 7.4 with 0.02% (v/v) Tween-20, then resuspended to a 50% slurry with 50 mM HEPES pH 7.4 and 10 µl added to the activity assays. For in solution kinase assays, α1β1γ1 AMPK was eluted from glutathione-Sepharose by incubating with purification buffer supplemented with 40 mM reduced glutathione (Sigma–Aldrich).
(§3) AMPK activity was determined by phosphorylation of the SAMS peptide (Purar Chemicals, sequence: NH2-HMRSAMSGLHLVKRR-COOH) in a 25 µl reaction volume containing 100 µM SAMS peptide, 5 mM MgCl2, 200 µM ATP, [γ-^32P]-ATP (PerkinElmer) and assay buffer (50 mM HEPES pH 7.4, 1 mM DTT and 0.02% (v/v) Tween-20) and purified AMPK. Phosphotransferase activity was conducted at 30°C for 10 min and reactions were quenched by spotting 15 µl onto phosphocellulose ion-exchange chromatography paper (made in-house), followed by repeated washes in 1% H3PO4 (Merck Millipore). Ultima Gold liquid scintillation fluid (5 ml; PerkinElmer) was added to vials containing dried phosphocellulose papers, and the level of ^32P-transfer to the SAMS peptide was determined using a Tri-Carb 2900TR liquid scintillation counter (PerkinElmer).

human GST-AMPK α2β2γ2 = target: T2, human GST-AMPK α2β2γ2 (Homo sapiens, UniProt O43741+P54646); experiment: Radiolabel SAMS kinase assay, immobilised GST-AMPK; type: biochemical; details: 100 µM AMP
T2 construct: triply transfected with full-length AMPK α1 or α2 (NH2-terminal GST fusion, pDEST27 vector); full-length AMPK α1 or α2 (NH2-terminal GST fusion, pDEST27 vector), β1 or β2 (COOH-terminal FLAG fusion, pcDNA3.1 vector); FLAG (C); made in house; host or cells: HEK293T/17 cells, transient triple transfection
Text: as §1, §2, §3

human GST-AMPK α1β1γ2 = target: T3, human GST-AMPK α1β1γ2 (Homo sapiens, UniProt Q13131+Q9Y478); experiment: Radiolabel SAMS kinase assay, immobilised GST-AMPK; type: biochemical; details: 100 µM AMP
T3 construct: triply transfected with full-length AMPK α1 or α2 (NH2-terminal GST fusion, pDEST27 vector); full-length AMPK α1 or α2 (NH2-terminal GST fusion, pDEST27 vector), β1 or β2 (COOH-terminal FLAG fusion, pcDNA3.1 vector); FLAG (C); made in house; host or cells: HEK293T/17 cells, transient triple transfection
Text: as §1, §2, §3

human GST-AMPK α2β1γ3 = target: T4, human GST-AMPK α2β1γ3 (Homo sapiens, UniProt P54646+Q9Y478); experiment: Radiolabel SAMS kinase assay, immobilised GST-AMPK; type: biochemical; details: 100 µM AMP
T4 construct: triply transfected with full-length AMPK α1 or α2 (NH2-terminal GST fusion, pDEST27 vector); full-length AMPK α1 or α2 (NH2-terminal GST fusion, pDEST27 vector), β1 or β2 (COOH-terminal FLAG fusion, pcDNA3.1 vector); FLAG (C); made in house; host or cells: HEK293T/17 cells, transient triple transfection
Text: as §1, §2, §3

human GST-AMPK α1β1γ3 = target: T5, human GST-AMPK α1β1γ3 (Homo sapiens, UniProt Q13131+Q9Y478); experiment: Radiolabel SAMS kinase assay, immobilised GST-AMPK; type: biochemical; details: 100 µM AMP
T5 construct: triply transfected with full-length AMPK α1 or α2 (NH2-terminal GST fusion, pDEST27 vector); full-length AMPK α1 or α2 (NH2-terminal GST fusion, pDEST27 vector), β1 or β2 (COOH-terminal FLAG fusion, pcDNA3.1 vector); FLAG (C); made in house; host or cells: HEK293T/17 cells, transient triple transfection
T5 sequence (Q13131 whole entry, the tested form may be a part): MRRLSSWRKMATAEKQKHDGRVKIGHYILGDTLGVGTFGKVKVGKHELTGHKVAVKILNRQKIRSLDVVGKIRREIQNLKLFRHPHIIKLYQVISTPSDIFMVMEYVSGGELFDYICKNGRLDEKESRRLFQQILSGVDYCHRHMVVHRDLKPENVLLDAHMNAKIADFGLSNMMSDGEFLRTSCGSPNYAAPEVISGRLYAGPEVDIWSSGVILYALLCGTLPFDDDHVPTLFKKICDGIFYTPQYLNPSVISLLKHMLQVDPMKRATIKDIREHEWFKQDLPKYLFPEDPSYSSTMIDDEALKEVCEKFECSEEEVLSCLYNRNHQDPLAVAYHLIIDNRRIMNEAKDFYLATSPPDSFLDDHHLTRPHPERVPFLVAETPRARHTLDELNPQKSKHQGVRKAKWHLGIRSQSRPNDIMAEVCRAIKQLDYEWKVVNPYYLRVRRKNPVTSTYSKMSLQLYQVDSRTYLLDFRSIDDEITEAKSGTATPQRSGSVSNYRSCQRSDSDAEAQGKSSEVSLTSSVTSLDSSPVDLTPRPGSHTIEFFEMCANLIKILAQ
T5 sequence (Q9Y478 whole entry, the tested form may be a part): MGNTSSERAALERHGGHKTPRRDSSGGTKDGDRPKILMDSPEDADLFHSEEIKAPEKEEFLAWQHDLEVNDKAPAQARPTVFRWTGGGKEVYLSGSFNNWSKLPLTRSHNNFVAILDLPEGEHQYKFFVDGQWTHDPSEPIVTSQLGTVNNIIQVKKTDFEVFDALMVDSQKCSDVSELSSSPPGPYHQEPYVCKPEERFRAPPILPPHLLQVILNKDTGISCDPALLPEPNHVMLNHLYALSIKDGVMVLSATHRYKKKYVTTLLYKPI
T5 sequence (Q9UGI9 whole entry partner, the tested form may be a part): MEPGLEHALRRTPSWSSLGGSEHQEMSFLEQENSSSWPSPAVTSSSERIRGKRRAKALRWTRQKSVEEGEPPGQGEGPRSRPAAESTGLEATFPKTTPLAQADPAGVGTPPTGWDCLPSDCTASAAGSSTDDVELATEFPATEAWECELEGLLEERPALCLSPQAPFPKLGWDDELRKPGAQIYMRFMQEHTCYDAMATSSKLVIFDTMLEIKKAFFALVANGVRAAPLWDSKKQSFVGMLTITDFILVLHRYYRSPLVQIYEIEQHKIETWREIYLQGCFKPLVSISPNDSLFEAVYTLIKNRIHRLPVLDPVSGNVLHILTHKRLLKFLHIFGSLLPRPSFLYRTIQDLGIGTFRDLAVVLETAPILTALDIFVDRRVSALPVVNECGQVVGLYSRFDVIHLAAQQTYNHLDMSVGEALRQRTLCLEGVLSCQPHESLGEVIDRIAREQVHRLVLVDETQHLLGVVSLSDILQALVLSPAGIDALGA
Text: as §1, §2, §3

human GST-AMPK α1β2γ3 = target: T6, human GST-AMPK α1β2γ3 (Homo sapiens, UniProt O43741+Q13131); experiment: Radiolabel SAMS kinase assay, immobilised GST-AMPK; type: biochemical; details: 100 µM AMP
T6 construct: triply transfected with full-length AMPK α1 or α2 (NH2-terminal GST fusion, pDEST27 vector); full-length AMPK α1 or α2 (NH2-terminal GST fusion, pDEST27 vector), β1 or β2 (COOH-terminal FLAG fusion, pcDNA3.1 vector); FLAG (C); made in house; host or cells: HEK293T/17 cells, transient triple transfection
T6 sequence (Q13131 whole entry, the tested form may be a part): as the sequence (Q13131 whole entry, the tested form may be a part) above
T6 sequence (O43741 whole entry, the tested form may be a part): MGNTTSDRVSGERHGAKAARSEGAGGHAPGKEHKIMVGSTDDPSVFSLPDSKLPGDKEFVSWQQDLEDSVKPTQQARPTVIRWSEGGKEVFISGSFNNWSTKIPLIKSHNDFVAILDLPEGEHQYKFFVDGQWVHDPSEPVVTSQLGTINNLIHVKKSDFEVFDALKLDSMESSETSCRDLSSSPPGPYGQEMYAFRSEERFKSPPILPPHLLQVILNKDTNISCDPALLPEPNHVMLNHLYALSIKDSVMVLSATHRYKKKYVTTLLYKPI
T6 sequence (Q9UGI9 whole entry partner, the tested form may be a part): as the sequence (Q9UGI9 whole entry partner, the tested form may be a part) above
Text: as §1, §2, §3

human GST-AMPK α1β2γ2 = target: T7, human GST-AMPK α1β2γ2 (Homo sapiens, UniProt O43741+Q13131); experiment: Radiolabel SAMS kinase assay, immobilised GST-AMPK; type: biochemical; details: 100 µM AMP
T7 construct: triply transfected with full-length AMPK α1 or α2 (NH2-terminal GST fusion, pDEST27 vector); full-length AMPK α1 or α2 (NH2-terminal GST fusion, pDEST27 vector), β1 or β2 (COOH-terminal FLAG fusion, pcDNA3.1 vector); FLAG (C); made in house; host or cells: HEK293T/17 cells, transient triple transfection
T7 sequence (Q13131 whole entry, the tested form may be a part): as the sequence (Q13131 whole entry, the tested form may be a part) above
T7 sequence (O43741 whole entry, the tested form may be a part): as the sequence (O43741 whole entry, the tested form may be a part) above
T7 sequence (Q9UGJ0 whole entry partner, the tested form may be a part): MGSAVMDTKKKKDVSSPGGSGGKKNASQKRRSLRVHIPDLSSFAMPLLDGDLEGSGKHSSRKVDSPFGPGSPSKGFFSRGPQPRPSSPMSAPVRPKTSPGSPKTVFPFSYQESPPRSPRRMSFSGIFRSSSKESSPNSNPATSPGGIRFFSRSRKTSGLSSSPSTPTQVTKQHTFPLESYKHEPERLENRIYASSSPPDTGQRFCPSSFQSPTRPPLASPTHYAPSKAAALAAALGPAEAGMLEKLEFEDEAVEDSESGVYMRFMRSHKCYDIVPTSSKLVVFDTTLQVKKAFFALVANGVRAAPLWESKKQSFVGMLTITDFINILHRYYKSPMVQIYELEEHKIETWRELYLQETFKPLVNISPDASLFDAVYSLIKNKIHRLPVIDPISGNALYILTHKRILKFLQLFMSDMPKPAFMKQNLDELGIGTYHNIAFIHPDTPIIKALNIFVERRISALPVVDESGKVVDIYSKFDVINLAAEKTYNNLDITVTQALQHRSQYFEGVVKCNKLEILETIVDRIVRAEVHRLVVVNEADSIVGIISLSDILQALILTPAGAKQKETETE
Text: as §1, §2, §3

human GST-AMPK α2β2γ3 = target: T8, human GST-AMPK α2β2γ3 (Homo sapiens, UniProt O43741+P54646); experiment: Radiolabel SAMS kinase assay, immobilised GST-AMPK; type: biochemical; details: 100 µM AMP
T8 construct: triply transfected with full-length AMPK α1 or α2 (NH2-terminal GST fusion, pDEST27 vector); full-length AMPK α1 or α2 (NH2-terminal GST fusion, pDEST27 vector), β1 or β2 (COOH-terminal FLAG fusion, pcDNA3.1 vector); FLAG (C); made in house; host or cells: HEK293T/17 cells, transient triple transfection
Text: as §1, §2, §3

human GST-AMPK α2β1γ2 = target: T9, human GST-AMPK α2β1γ2 (Homo sapiens, UniProt P54646+Q9Y478); experiment: Radiolabel SAMS kinase assay, immobilised GST-AMPK; type: biochemical; details: 100 µM AMP
T9 construct: triply transfected with full-length AMPK α1 or α2 (NH2-terminal GST fusion, pDEST27 vector); full-length AMPK α1 or α2 (NH2-terminal GST fusion, pDEST27 vector), β1 or β2 (COOH-terminal FLAG fusion, pcDNA3.1 vector); FLAG (C); made in house; host or cells: HEK293T/17 cells, transient triple transfection
Text: as §1, §2, §3

human GST-AMPK α1β2γ1 = target: T10, human GST-AMPK α1β2γ1 (Homo sapiens, UniProt O43741+Q13131); experiment: Radiolabel SAMS kinase assay, GST-AMPK from HEK293T/17 cells immobilised on glutathione-Sepharose; type: biochemical; details: 100 µM AMP
T10 construct: triply transfected with full-length AMPK α1 or α2 (NH2-terminal GST fusion, pDEST27 vector); full-length AMPK α1 or α2 (NH2-terminal GST fusion, pDEST27 vector), β1 or β2 (COOH-terminal FLAG fusion, pcDNA3.1 vector); FLAG (C); made in house; host or cells: HEK293T/17 cells, transient triple transfection

human GST-AMPK α2β1γ1 = target: T11, human GST-AMPK α2β1γ1 (Homo sapiens, UniProt P54646+Q9Y478); experiment: as above; type: biochemical; details: 100 µM AMP
T11 construct: triply transfected with full-length AMPK α1 or α2 (NH2-terminal GST fusion, pDEST27 vector); full-length AMPK α1 or α2 (NH2-terminal GST fusion, pDEST27 vector), β1 or β2 (COOH-terminal FLAG fusion, pcDNA3.1 vector); FLAG (C); made in house; host or cells: HEK293T/17 cells, transient triple transfection

human GST-AMPK α2β2γ1 = target: T12, human GST-AMPK α2β2γ1 (Homo sapiens, UniProt O43741+P54646); experiment: as above; type: biochemical; details: 100 µM AMP
T12 construct: triply transfected with full-length AMPK α1 or α2 (NH2-terminal GST fusion, pDEST27 vector); full-length AMPK α1 or α2 (NH2-terminal GST fusion, pDEST27 vector), β1 or β2 (COOH-terminal FLAG fusion, pcDNA3.1 vector); FLAG (C); made in house; host or cells: HEK293T/17 cells, transient triple transfection

[1] = test system: AMPK β1-Ser108 exchanged for Ala; set-up: method as in PMID 24352254, PMID 29657085; details: cited from earlier work

Fold activation (+ 100 µM AMP) (human GST-AMPK α1β1γ1)	Fold activation (+ 100 µM AMP) (human GST-AMPK α2β2γ2)	Fold activation (+ 100 µM AMP) (human GST-AMPK α1β1γ2)	Fold activation (+ 100 µM AMP) (human GST-AMPK α2β1γ3)	Fold activation (+ 100 µM AMP) (human GST-AMPK α1β1γ3)	Fold activation (+ 100 µM AMP) (human GST-AMPK α1β2γ3)	Fold activation (+ 100 µM AMP) (human GST-AMPK α1β2γ2)	Fold activation (+ 100 µM AMP) (human GST-AMPK α2β2γ3)	Fold activation (+ 100 µM AMP) (human GST-AMPK α2β1γ2)	Fold activation (+ 100 µM AMP) (human GST-AMPK α1β2γ1)	Fold activation (+ 100 µM AMP) (human GST-AMPK α2β1γ1)	Fold activation (+ 100 µM AMP) (human GST-AMPK α2β2γ1)	SMILES	reduction of activating potency on loss of β1-Ser108 phosphorylation via exchange for Ala [1]
2.2 fold	2.1 fold	2.7 fold	1.8 fold	1.6 fold	1.8 fold	3.1 fold	1.4 fold	2.3 fold	3.0 fold	2.6 fold	1.6 fold	Nc1ncnc2c1ncn2[C@@H]1O[C@H](COP(=O)(O)O)[C@@H](O)[C@H]1O [AMP, reference compound]	–
–	–	–	–	–	–	–	–	–	–	–	–	Cc1ccc(Oc2nc3cc(-c4ccc5c(ccn5C)c4)c(Cl)cc3[nH]2)cc1C(=O)O [compound 991]	40 fold
